Laboratory results from patent US9840501B2, “Morpholin-pyridine derivatives” (Hoffmann-La Roche Inc., priority 2014, dated 2017).

Experiments:
mouse TAAR1 = mouse TAAR1 (Mus musculus (Mouse), UniProt Q923Y8); assay: Radioligand binding assay on mouse TAAR1; conditions: mouse TAAR1, membranes of stably transfected HEK-293 cells; first value of the pair; read-out: Ki (μM) mouse/rat: mouse
Method: (§1) For the construction of expression plasmids the coding sequences of human, rat and mouse TAAR 1 were amplified from genomic DNA essentially as described by Lindemann et al.. The Expand High Fidelity PCR System (Roche Diagnostics) was used with 1.5 mM Mg^2+ and purified PCR products were cloned into pCR2.1-TOPO cloning vector (Invitrogen) following the instructions of the manufacturer. PCR products were subcloned into the pIRESneo2 vector (BD Clontech, Palo Alto, Calif.), and expression vectors were sequence verified before introduction in cell lines.
(§2) For the generation of stably transfected cell lines HEK293 cells were transfected with the pIRESneo2 expression plasmids containing the TAAR coding sequences (described above) with Lipofectamine 2000 (Invitrogen) according to the instructions of the manufacturer, and 24 hrs post transfection the culture medium was supplemented with 1 mg/ml G418 (Sigma, Buchs, Switzerland). After a culture period of about 10 d clones were isolated, expanded and tested for responsiveness to trace amines (all compounds purchased from Sigma) with the cAMP Biotrak Enzyme immunoassay (EIA) System (Amersham) following the non-acetylation EIA procedure provided by the manufacturer.
Radioligand Binding Assay on Mouse TAAR1
(§3) Membrane Preparation and Radioligand Binding.
(§4) Cells were released from culture flasks using trypsin/EDTA, harvested, washed twice with ice-cold PBS (without Ca^2+ and Mg^2+), pelleted at 1,000 rpm for 5 min at 4° C., frozen and stored at −80° C. Frozen pellets were suspended in 20 ml HEPES-NaOH (20 mM, pH 7.4) containing 10 mM EDTA and homogenized with a Polytron (PT 6000, Kinematica) at 14′000 rpm for 20 s. The homogenate was centrifuged at 48,000×g for 30 min at 4° C. Subsequently, the supernatant was removed and discarded, and the pellet resuspended in 20 ml HEPES-NaOH (20 mM, pH 7.4) containing 0.1 mM EDTA using the Polytron (20 s at 14′000 rpm). This procedure was repeated and the final pellet resuspended in HEPES-NaOH containing 0.1 mM EDTA and homogenized using the Polytron. Typically, aliquots of 2 ml membrane portions were stored at −80° C. With each new membrane batch the dissociation constant (Kd) was determined via a saturation curve. […] Nonspecific binding was defined as the amount of ^3[H]—(S)-4-[(ethyl-phenyl-amino)-methyl]-4,5-dihydro-oxazol-2-ylamine bound in the presence of 10 μM unlabeled ligand. All compounds were tested at a broad range of concentrations (10 pM to 10 μM) in duplicates. […] The 96 deep well plates were incubated for 1 hr at 4° C. Incubations were terminated by rapid filtration through Unifilter-96 plates (Packard Instrument Company) and glass filters GF/C (Perkin Elmer) presoaked for 1 hr in polyethylenimine (0.3%) and washed 3 times with 1 ml of cold binding buffer. After addition of 45 μl of Microscint 40 (PerkinElmer) the Unifilter-96 plate was sealed and after 1 hr the radioactivity counted using a TopCount Microplate Scintillation Counter (Packard Instrument Company).

rat TAAR1 = rat TAAR1 (Rattus norvegicus (Rat), UniProt Q923Y9); assay: Radioligand binding assay on rat TAAR1; conditions: rat TAAR1, membranes of stably transfected HEK-293 cells; second value of the pair; read-out: Ki (μM) mouse/rat: rat
Method: as §1, §2
Radioligand Binding Assay on Rat TAAR1
as §3
as §4, with “1′000” for “1,000”, “48′000×g” for “48,000×g”

Sequence of mouse TAAR1 (Q923Y8 whole entry): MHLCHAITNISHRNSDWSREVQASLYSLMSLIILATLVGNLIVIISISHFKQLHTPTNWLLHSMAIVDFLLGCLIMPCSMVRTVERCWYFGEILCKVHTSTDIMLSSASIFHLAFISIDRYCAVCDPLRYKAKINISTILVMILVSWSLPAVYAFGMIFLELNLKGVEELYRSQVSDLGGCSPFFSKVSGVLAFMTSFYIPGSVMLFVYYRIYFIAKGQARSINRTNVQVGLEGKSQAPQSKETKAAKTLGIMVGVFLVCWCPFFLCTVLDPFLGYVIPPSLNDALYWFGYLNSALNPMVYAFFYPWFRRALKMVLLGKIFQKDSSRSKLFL
Sequence of rat TAAR1 (Q923Y9 whole entry): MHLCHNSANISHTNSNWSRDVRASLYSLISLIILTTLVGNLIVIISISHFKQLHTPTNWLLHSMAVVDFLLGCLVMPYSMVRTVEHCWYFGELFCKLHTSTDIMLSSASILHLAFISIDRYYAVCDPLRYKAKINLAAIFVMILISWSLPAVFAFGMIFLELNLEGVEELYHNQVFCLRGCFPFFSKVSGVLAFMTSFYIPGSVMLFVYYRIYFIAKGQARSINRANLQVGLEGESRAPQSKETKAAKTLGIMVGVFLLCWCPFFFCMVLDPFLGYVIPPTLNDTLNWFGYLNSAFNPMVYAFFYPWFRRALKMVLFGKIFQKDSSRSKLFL

Row | Ki (mouse TAAR1) | Ki (rat TAAR1) | SMILES
1 | 0.0059 µM | 1.96 µM | O=C(Nc1cnc(C2CNCCO2)nc1)Nc1cccc(Cl)c1 (racemic) [Example 73, (RS)-1-(3-Chlorophenyl)-3-(2-morpholin-2-ylpyrimidin-5-yl)urea]
2 | 0.178 µM | 0.461 µM | Clc1ccc(Nc2cnc(C3CNCCO3)c(Cl)c2)nc1 (racemic) [Example 102, (RS)-5-Chloro-N-(5-chloro-2-pyridyl)-6-morpholin-2-yl-pyridin-3-amine]
3 | 0.0837 µM | 0.455 µM | Cc1cc(Nc2ccc(C(F)(F)F)cn2)cnc1C1CNCCO1 (racemic) [Example 104, (RS)-5-Methyl-6-morpholin-2-yl-N-[5-(trifluoromethyl)-2-pyridyl]pyridin-3-amine]
4 | 0.143 µM | 0.371 µM | O=C(Nc1cnc(C2CNCCO2)c(Cl)c1)c1ccnc(C(F)(F)F)c1 (racemic) [Example 107, (RS)—N-(5-Chloro-6-morpholin-2-yl-3-pyridyl)-2-(trifluoromethyl)pyridine-4-carboxamide]
5 | 0.0543 µM | 0.019 µM | O=C(Nc1cccc(Cl)c1)Nc1cnc(C2CNCCO2)c(Cl)c1 (racemic) [Example 109, (RS)-1-(5-Chloro-6-morpholin-2-yl-3-pyridyl)-3-(3-chlorophenyl)urea]
6 | 0.0128 µM | 0.176 µM | Fc1cc(Nc2ccc(C(F)(F)F)cn2)cnc1C1CNCCO1 (racemic) [Example 111, (RS)-5-Fluoro-6-morpholin-2-yl-N-[5-(trifluoromethyl)-2-pyridyl]pyridin-3-amine]
7 | 0.0102 µM | 0.0286 µM | O=C(Nc1cccc(Cl)c1)Nc1cnc(C2CNCCO2)c(F)c1 (racemic) [Example 112, (RS)-1-(3-Chlorophenyl)-3-(5-fluoro-6-morpholin-2-yl-3-pyridyl)urea]
8 | 0.0557 µM | 1.31 µM | O=C(Nc1cnc(C2CNCCO2)c(F)c1)c1ccnc(C(F)(F)F)c1 (racemic) [Example 113, (RS)—N-(5-Fluoro-6-morpholin-2-yl-3-pyridyl)-2-(trifluoromethyl)pyridine-4-carboxamide]
9 | 0.0048 µM | 0.0221 µM | CCCc1n[nH]c(C(=O)Nc2cnc(C3CNCCO3)c(F)c2)c1Cl (racemic) [Example 114, (RS)-4-Chloro-N-(5-fluoro-6-morpholin-2-yl-3-pyridyl)-3-propyl-1H-pyrazole-5-carboxamide]
10 | 0.464 µM | 1.41 µM | Cc1cc(NC(=O)c2ccnc(C(F)(F)F)c2)cnc1C1CNCCO1 (racemic) [Example 117, (RS)—N-(5-Methyl-6-morpholin-2-yl-3-pyridyl)-2-(trifluoromethyl)pyridine-4-carboxamide]
11 | 0.0468 µM | 0.597 µM | CCCc1n[nH]c(C(=O)Nc2cnc(C3CNCCO3)c(C)c2)c1Cl (racemic) [Example 118, (RS)-4-Chloro-N-(5-methyl-6-morpholin-2-yl-3-pyridyl)-3-propyl-1H-pyrazole-5-carboxamide]
12 | 0.0533 µM | 0.243 µM | Cc1cc(NC(=O)Nc2cccc(Cl)c2)cnc1C1CNCCO1 (racemic) [Example 119, (RS)-1-(3-Chlorophenyl)-3-(5-methyl-6-morpholin-2-yl-3-pyridyl)urea]
13 | 0.0015 µM | 0.043 µM | Clc1ccc(Nc2ccc([C@@H]3CNCCO3)nc2)cc1 [Example 18, N-(4-Chlorophenyl)-6-[(2S)-morpholin-2-yl]pyridin-3-amine]
14 | 0.0019 µM | 0.0751 µM | Clc1ccc(Nc2ccc([C@@H]3CNCCO3)nc2)nc1 [Example 20, N-(5-Chloro-2-pyridyl)-6-[(2S)-morpholin-2-yl]pyridin-3-amine]
15 | 0.0124 µM | 0.182 µM | Clc1ccc(Nc2ccc([C@H]3CNCCO3)nc2)cc1 [Example 24, N-(4-Chlorophenyl)-6-[(2R)-morpholin-2-yl]pyridin-3-amine]
16 | 0.0118 µM | 0.424 µM | Clc1ccc(Nc2ccc([C@H]3CNCCO3)nc2)nc1 [Example 26, N-(5-Chloro-2-pyridyl)-6-[(2R)-morpholin-2-yl]pyridin-3-amine]
17 | 0.0035 µM | 0.0103 µM | FC(F)(F)c1ccc(Nc2ccc([C@@H]3CNCCO3)nc2)nc1 [Example 29, N-[6-[(2S)-Morpholin-2-yl]-3-pyridyl]-5-(trifluoromethyl)pyridin-2-amine]
18 | 0.0034 µM | 0.0208 µM | FC(F)(F)c1cccc(Nc2ccc([C@@H]3CNCCO3)nc2)n1 [Example 30, N-[6-[(2S)-Morpholin-2-yl]-3-pyridyl]-6-(trifluoromethyl)pyridin-2-amine]
19 | 0.003 µM | 0.102 µM | O=C(Nc1ccc([C@@H]2CNCCO2)nc1)c1ccc(Cl)cc1 [Example 31, 4-Chloro-N-[6-[(2S)-morpholin-2-yl]-3-pyridyl]benzamide]
20 | 0.0056 µM | 0.0107 µM | O=C(Nc1ccc([C@@H]2CNCCO2)nc1)c1cccc(C(F)(F)F)c1 [Example 35, N-[6-[(2S)-Morpholin-2-yl]-3-pyridyl]-3-(trifluoromethyl)benzamide]
21 | 0.0066 µM | 0.0278 µM | O=C(Nc1ccc([C@@H]2CNCCO2)nc1)c1ccc(OCC(F)(F)F)nc1 [Example 36, N-[6-[(2S)-Morpholin-2-yl]-3-pyridyl]-6-(2,2,2-trifluoroethoxy)pyridine-3-carboxamide]

Row | SMILES | Ki (mouse TAAR1) | Ki (rat TAAR1)
22 | Brc1ccc(Nc2ccc([C@@H]3CNCCO3)nc2)nc1 [Example 21, N-(5-Bromo-2-pyridyl)-6-[(2S)-morpholin-2-yl]pyridin-3-amine] | 0.002 µM | 0.0324 µM
23 | FC(F)(F)c1ccc(Nc2ccc([C@@H]3CNCCO3)nc2)cn1 [Example 22, 6-[(2S)-Morpholin-2-yl]-N-[6-(trifluoromethyl)-3-pyridyl]pyridin-3-amine] | 0.0126 µM | 0.247 µM
24 | FC(F)(F)c1ccnc(Nc2ccc([C@@H]3CNCCO3)nc2)c1 [Example 23, 6-[(2S)-Morpholin-2-yl]-N-[4-(trifluoromethyl)-2-pyridyl]pyridin-3-amine] | 0.0124 µM | 0.154 µM
25 | FC(F)(F)c1ccc(Nc2ccc([C@H]3CNCCO3)nc2)cn1 [Example 27, 6-[(2R)-Morpholin-2-yl]-N-[6-(trifluoromethyl)-3-pyridyl]pyridin-3-amine] | 0.074 µM | 1.1 µM
26 | FC(F)(F)c1ccnc(Nc2ccc([C@H]3CNCCO3)nc2)c1 [Example 28, 6-[(2R)-Morpholin-2-yl]-N-[4-(trifluoromethyl)-2-pyridyl]pyridin-3-amine] | 0.11 µM | 0.606 µM
27 | O=C(Nc1ccc([C@@H]2CNCCO2)nc1)c1ccc(C(F)(F)F)cc1 [Example 33, N-[6-[(2S)-Morpholin-2-yl]-3-pyridyl]-4-(trifluoromethyl)benzamide] | 0.0056 µM | 0.052 µM
